# Target: EGFR (UniProt P00533)
# Sequence (P00533 whole entry, looked up): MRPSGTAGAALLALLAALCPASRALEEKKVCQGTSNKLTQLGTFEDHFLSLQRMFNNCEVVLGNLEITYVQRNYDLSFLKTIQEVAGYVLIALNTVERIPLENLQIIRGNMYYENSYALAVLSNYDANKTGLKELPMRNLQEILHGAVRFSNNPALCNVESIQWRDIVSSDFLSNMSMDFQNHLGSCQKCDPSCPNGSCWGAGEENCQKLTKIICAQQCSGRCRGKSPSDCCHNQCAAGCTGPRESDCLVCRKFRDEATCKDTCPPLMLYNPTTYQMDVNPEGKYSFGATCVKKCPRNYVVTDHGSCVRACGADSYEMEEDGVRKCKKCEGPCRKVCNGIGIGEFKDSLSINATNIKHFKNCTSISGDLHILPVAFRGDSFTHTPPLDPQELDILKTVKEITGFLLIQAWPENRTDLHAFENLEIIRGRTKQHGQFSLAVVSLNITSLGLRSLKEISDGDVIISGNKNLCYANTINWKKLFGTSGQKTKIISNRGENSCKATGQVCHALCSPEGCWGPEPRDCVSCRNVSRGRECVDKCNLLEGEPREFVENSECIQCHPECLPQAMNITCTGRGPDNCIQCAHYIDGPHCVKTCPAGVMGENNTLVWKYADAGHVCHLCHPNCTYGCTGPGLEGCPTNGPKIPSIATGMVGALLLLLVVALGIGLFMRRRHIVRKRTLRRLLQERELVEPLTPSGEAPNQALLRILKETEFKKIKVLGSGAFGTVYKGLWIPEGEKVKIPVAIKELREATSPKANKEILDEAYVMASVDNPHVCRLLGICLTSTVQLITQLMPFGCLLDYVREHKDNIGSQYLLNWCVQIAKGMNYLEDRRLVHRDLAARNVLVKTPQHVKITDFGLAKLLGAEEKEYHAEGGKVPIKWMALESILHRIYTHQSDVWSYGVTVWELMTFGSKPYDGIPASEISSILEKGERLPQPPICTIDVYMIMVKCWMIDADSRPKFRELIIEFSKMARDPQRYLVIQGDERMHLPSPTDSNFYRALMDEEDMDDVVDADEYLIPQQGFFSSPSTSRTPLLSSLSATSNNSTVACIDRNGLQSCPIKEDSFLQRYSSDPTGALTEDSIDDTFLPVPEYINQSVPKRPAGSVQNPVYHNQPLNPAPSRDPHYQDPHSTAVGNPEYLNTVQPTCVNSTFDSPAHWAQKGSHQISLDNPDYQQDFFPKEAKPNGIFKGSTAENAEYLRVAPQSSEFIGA
row,SMILES,IC50 [µM]
1,Cc1ccc2ncnc(Nc3ccc(C)c(C)c3)c2c1,> 45
2,Cc1ccc2ncnc(Nc3cccc(C(F)(F)F)c3)c2c1,0.86
3,COc1cc2nc(Nc3ccc(C)cc3)nc(Nc3ccc(C)cc3)c2cc1OC,3.4
4,COc1cccc(Nc2ncnc3cc(OC)c(OC)cc23)c1,1
5,Cc1ccc2ncnc(Nc3cccc(Br)c3)c2c1,0.33
6,Cc1ccc2ncnc(Nc3cccc(C(=O)O)c3)c2c1,> 50
7,COc1ccc(Nc2ncnc3ccc(C)cc23)cc1,10
8,Cc1ccc2ncnc(Nc3ccc4c(c3)OCO4)c2c1,21
9,COc1cc2ncnc(Nc3cc(Cl)cc(Cl)c3)c2cc1OC,0.024
10,Cc1ccc(Nc2ncnc3ccc(C)cc23)cc1,> 50
11,Cc1ccc2ncnc(Nc3ccccc3)c2c1,> 50
12,Cc1ccc2ncnc(Nc3ccccc3Cl)c2c1,> 50
13,Cc1ccc2ncnc(Nc3ccc(Br)cc3)c2c1,14
14,Cc1ccc2ncnc(Nc3ccccc3C)c2c1,> 50
15,COc1cc2c(Nc3cccc(Cl)c3)ncnc2c(OC)c1OC,> 50
16,Cc1ccc2ncnc(Nc3ccccc3O)c2c1,> 50
17,COc1cc2ncnc(Nc3ccccc3)c2cc1OC,> 50
18,COc1cc2ncnc(Nc3cccc(I)c3)c2cc1OC,0.0017
19,Clc1cccc(Nc2ncnc3ccccc23)c1,0.205
20,Cc1ccc2ncnc(Nc3ccc(C#N)cc3)c2c1,> 50
21,Clc1ccccc1Nc1ncnc2ccccc12,> 50
22,Cc1cccc2c(Nc3cccc(Cl)c3)ncnc12,> 50
23,COc1cc2nc(N3CCN(C)CC3)nc(Nc3cccc(Cl)c3)c2cc1OC,3.4
24,Cc1ccc2ncnc(Nc3ccc(O)cc3)c2c1,> 50
25,COc1cc2nc(Cl)nc(Nc3ccc(C)cc3)c2cc1OC,4.9
26,COc1cc2nc(Cl)nc(Nc3cccc(Cl)c3)c2cc1OC,20
27,Cc1ccc2ncnc(Nc3cccc(C(N)=O)c3)c2c1,> 50
28,Cc1ccc2ncnc(Nc3cccc(Cl)c3)c2c1,0.037
